Measurements taken from patent publication US12329739B2, “Isoflavonoid compounds and methods for the treatment of cancer” (Aardvark Therapeutics, Inc., priority 2010, dated 2025).

Legend:
[1] = system: A2058; assay: MTT proliferation assay, A2058; format: cell-based; settings: Melanoma, A2058, 120 h of exposure
Protocol: (§1) Proliferation Assays. IC50 values were determined for each cell line. Cells were seeded in 96-well plates at an appropriate cell density as determined from growth kinetics analysis and cultured for 5 days in the absence and presence of the test compounds. Cell proliferation was assessed after the addition of 20 μl of 3-4,5 dimethylthiazol-2,5-diphenyl tetrazolium bromide (MTT, 5 mg/ml in PBS, Sigma) for 5 hrs at 37° C. according to manufacturer's instructions. IC50 values were calculated from semi-log plots of % of control proliferation on the y-axis against log dose on the x-axis.
(§2) Anti-proliferative Activity of Isoflavonoid Derivatives. IC50 values were determined for each cell line after 120 h of exposure.

[2] = system: CP70; assay: MTT proliferation assay, CP70; format: cell-based; settings: Ovarian, CP70, 120 h of exposure
Protocol: as §1, §2

[3] = system: CALU3; assay: MTT proliferation assay, CALU3; format: cell-based; settings: NSCLC, CALU3, 120 h of exposure
Protocol: as §1, §2

[4] = system: A2780; assay: MTT proliferation assay, A2780; format: cell-based; settings: Ovarian, A2780, 120 h of exposure
Protocol: as §1, §2

[5] = system: R-182; assay: MTT proliferation assay, R-182; format: cell-based; settings: Ovarian, R-182, 120 h of exposure
Text: Tissue culture. The multidrug resistant primary epithelial ovarian cancer cell line R-182 TARA was a gift from Dr. Gil Mor (Yale University, New Haven, CT, USA). This cell line was derived by explant from ovarian tumors and cultured as previously described. All other cell lines were purchased from American Type Culture Collection (ATCC, Manassas, VA, USA) with the exception of MKN1, HuH-7, JHH-1, which were purchased from the Japanese Collection of Research Bioresources (JCRB, Osaka, Japan), and OE19 which was purchased from the European Collection of Cell Cultures (ECACC, Salisbury, UK).
as §1, §2

[6] = system: DU145; assay: MTT proliferation assay, DU145; format: cell-based; settings: Prostate, DU145, 120 h of exposure
Protocol: as §1, §2

[7] = system: COLO205; assay: MTT proliferation assay, COLO205; format: cell-based, human; settings: CRC, COLO205, 120 h of exposure
Protocol: (§3) The human non-small cell lung adenocarcinoma lines NCI-H1299 (CRL-5803), NCI-H460 (HTB-177), NCI-H358 (CRL-5807), NCI-H838 (CRL-5844), the human colorectal adenocarcinoma lines COLO 205 (CCL-222), HCT-15 (CCL-225) and the human gastric cancer cell line NCI-N87 (CRL-5822) were cultured in RPMI 1640 medium containing 2 g/L sodium bicarbonate (Hyclone/Invitrogen) supplemented with 2 mM L-glutamine (Gibco) 1 mM sodium pyruvate (Sigma), 10 mM HEPES (Sigma) and 4500 mg/L glucose (Sigma). The human non-small cell lung adenocarcinoma line NCI-H2126 (CCL-256) was cultured in DMEM:F12(1:1) (Hyclone/Invitrogen) containing 2.5 mM L-glutamine 2.4 g/L sodium bicarbonate supplemented with 5% fetal bovine serum (FBS), an additional 2 mM L-glutamine, 15 mM HEPES, 0.005 mg/ml insulin (Sigma), 0.01 mg/ml transferrin (Sigma), 30 nM sodium selenite (Sigma), 10 nM hydrocortisone (Sigma) and 10 nM beta-estradiol (Sigma). The human colorectal adenocarcinoma line HT-29 (HTB-38) and the human gastric cancer cell lines OE-19 (#96071721) and MKN1 (JCRB0252) were cultured in RPMI 1640 media supplemented with 2 mM L-glutamine.
as §1, §2

[8] = system: LNCaP; assay: MTT proliferation assay, LNCaP; format: cell-based; settings: Prostate, 120 h of exposure
Protocol: as §1, §2

[9] = system: 4405; assay: MTT proliferation assay, 4405; format: cell-based; settings: Melanoma, 4405, 120 h of exposure
Protocol: as §1, §2

[10] = system: HuH-7; assay: MTT proliferation assay, HuH-7; format: cell-based, human; settings: Liver, HuH-7, 120 h of exposure
Protocol: (§4) The human hepatocellular carcinoma lines HepG2 (HB-8065), SK-HEP-1 (HTB-52) and the normal human lung fibroblast line IMR-90 (CCL-186) were cultured in Minimum Essential Eagles Medium containing 2 mM L-glutamine, 2.2 g/L sodium bicarbonate, supplemented with 1 mM sodium pyruvate and 0.1 mM non-essential amino acids. The human hepatocellular carcinoma line JHH-1 (JCRB1062) was cultured in Williams E Medium (Invitrogen) containing 2.2 g/L sodium bicarbonate, supplemented with 2 mM L-glutamine. The hepatocellular carcinoma line HuH-7 (JCRB0403) was cultured in DMEM, supplemented with 2 mM L-glutamine.
as §1, §2

[11] = system: HepG2; assay: MTT proliferation assay, HepG2; format: cell-based, human; settings: Liver, HepG2, 120 h of exposure
Protocol: as §4, §1, §2

[12] = system: PC3; assay: MTT proliferation assay, PC3; format: cell-based; settings: Prostate, PC3, 120 h of exposure
Protocol: as §1, §2

[13] = system: A549; assay: MTT proliferation assay, A549; format: cell-based; settings: NSCLC, A549, 120 h of exposure
Protocol: as §1, §2

[14] = system: MDA-MB-468; assay: MTT proliferation assay, MDA-MB-468; format: cell-based, human; settings: Breast, MDA-MB-468, 120 h of exposure
Protocol: The human gastric cancer cell line AGS (CRL-1739) was cultured in Hams F-12K (Kaighans modification) medium containing 2 mM L-glutamine, 2.5 g/L sodium bicarbonate and 2 mM sodium pyruvate. The human breast adenocarcinoma line MDA-MB-468 (HTB-132) was cultured in DMEM:F12 (1:1) medium containing 2.5 mM L-glutamine, 2.4 g/L sodium bicarbonate, supplemented with an additional 2 mM L-glutamine.
as §1, §2

[15] = system: NCI-H460; assay: MTT proliferation assay, NCI-H460; format: cell-based, human; settings: NSCLC, NCI-H460, 120 h of exposure
Protocol: as §3, §1, §2

[16] = system: SK-Hep-1; assay: MTT proliferation assay, SK-Hep-1; format: cell-based, human; settings: Liver, SK-Hep-1, 120 h of exposure
Protocol: as §4, §1, §2

[17] = system: SKBR-3; assay: MTT proliferation assay, SKBR-3; format: cell-based, human; settings: Breast, SKBR-3, 120 h of exposure
Protocol: The human colorectal adenocarcinoma line HCT-116 (CCL-247) and the human breast adenocarcinoma line SK-BR-3 (HTB-30) were cultured in McCoy's 5a Medium (Invitrogen) containing 1.5 mM L-glutamine and 2.2 g/L sodium bicarbonate. The human colorectal adenocarcinoma line SW620 (CCL-227) was cultured in Leibovitz's L-15 Medium (Invitrogen) containing 2.05 mM L-glutamine.
as §1, §2

[18] = system: MM200; assay: MTT proliferation assay, MM200; format: cell-based; settings: Melanoma, MM200, 120 h of exposure
Protocol: as §1, §2

[19] = Homo sapiens, MDA-MB-468, 120 h

Compound	IC50 ([1]; Homo sapiens, A2058, 120 h) [µM]	IC50 ([2]; 120 h) [µM]	IC50 ([3]; Homo sapiens, Calu-3) [µM]	IC50 ([4]; Homo sapiens, A2780, 120 h) [µM]	IC50 [5] [µM]	IC50 ([6]; Homo sapiens, DU-145) [µM]	IC50 ([7]; Homo sapiens, COLO 205) [µM]	IC50 ([8]; Homo sapiens) [µM]	IC50 [9] [µM]	IC50 ([10]; Homo sapiens) [µM]	IC50 ([11]; Homo sapiens) [µM]	IC50 ([12]; Homo sapiens, PC-3, 120 h) [µM]	IC50 ([13]; Homo sapiens) [µM]	IC50 [14, 19] [µM]	IC50 ([15]; Homo sapiens) [µM]	IC50 ([16]; Homo sapiens, SK-HEP1) [µM]	IC50 ([17]; Homo sapiens, SK-BR-3, 120 h) [µM]	IC50 [18] [µM]	other results
COc1ccc([C@@H]2c3ccc(O)c(C)c3OC[C@@H]2c2ccc(O)cc2)cc1C [l-7, l-cis-3-(4-hydroxyphenyl)-4-(4-methoxy-3-methylphenyl)-8-methylchroman-7-ol]	≥ 10	≥ 10	≥ 10	≥ 10	≥ 10	≥ 10	≥ 10	≥ 10	≥ 10	≥ 10	≥ 10	≥ 10	≥ 10	≥ 10	≥ 10	≥ 10	–	–	–
COc1ccc(C2c3ccc(O)c(C)c3OCC2c2ccc(O)cc2)cc1C (stereo not drawn) [Compound 7, 3-(4-hydroxyphenyl)-4-(4-methoxy-3-methylphenyl)-8-methylchroman-7-ol]	1.6 to 10	1.6 to 10	1.6 to 10	1.6 to 10	1.6 to 10	1.6 to 10	≥ 10	1.6 to 10	1.6 to 10	1.6 to 10	1.6 to 10	1.6 to 10	1.6 to 10	1.6 to 10	1.6 to 10	1.6 to 10	0.51 to 1.5	≥ 10	–
Cc1cc(C2c3ccc(O)c(C)c3OCC2c2ccc(O)cc2)ccc1O (stereo not drawn) [Compound 6, 3-(4-hydroxyphenyl)-4-(4-hydroxy-3-methylphenyl)-8-methylchroman-7-ol]	0.15 to 0.5	0.51 to 1.5	0.15 to 0.5	0.15 to 0.5	0.15 to 0.5	0.15 to 0.5	1.6 to 10	0.51 to 1.5	0.15 to 0.5	0.15 to 0.5	0.15 to 0.5	0.15 to 0.5	0.51 to 1.5	0.15 to 0.5	0.15 to 0.5	0.15 to 0.5	≤ 0.15	0.51 to 1.5	–
COc1ccc([C@H]2c3ccc(O)c(C)c3OC[C@H]2c2ccc(O)cc2)cc1C [d-7, d-cis-3-(4-hydroxyphenyl)-4-(4-methoxy-3-methylphenyl)-8-methylchroman-7-ol]	0.51 to 1.5	0.51 to 1.5	1.6 to 10	0.51 to 1.5	0.51 to 1.5	0.51 to 1.5	≥ 10	1.6 to 10	1.6 to 10	0.51 to 1.5	0.51 to 1.5	0.51 to 1.5	1.6 to 10	0.15 to 0.5	1.6 to 10	1.6 to 10	–	–	–
Cc1c(O)ccc2c1OC[C@@H](c1ccc(O)cc1)[C@H]2c1ccc(O)cc1 [d-5, d-cis-3-(4-hydroxyphenyl)-4-(4-hydroxyphenyl)-8-methylchroman-7-ol]	≤ 0.15	≤ 0.15	≤ 0.15	≤ 0.15	≤ 0.15	≤ 0.15	0.51 to 1.5	≤ 0.15	≤ 0.15	≤ 0.15	≤ 0.15	≤ 0.15	0.15 to 0.5	≤ 0.15	≤ 0.15	≤ 0.15	≤ 0.15	0.15 to 0.5	–
Cc1cc([C@H]2c3ccc(O)c(C)c3OC[C@H]2c2ccc(O)cc2)ccc1O (relative stereo) [l-6, l-cis-3-(4-hydroxyphenyl)-4-(4-hydroxy-3-methylphenyl)-8-methylchroman-7-ol]	–	–	–	–	≥ 10	–	–	–	≥ 10	–	–	–	–	–	–	–	–	≥ 10	IC50 [1]: ≥ 10 µM; IC50 [2]: ≥ 10 µM; IC50 [3]: ≥ 10 µM; IC50 [4]: ≥ 10 µM; IC50 [6]: ≥ 10 µM; IC50 [7]: ≥ 10 µM; IC50 [8]: ≥ 10 µM; IC50 [17]: 1.6 to 10 µM; IC50 [10]: ≥ 10 µM; IC50 [11]: ≥ 10 µM; IC50 [12]: ≥ 10 µM; IC50 [13]: ≥ 10 µM; IC50 [14]: ≥ 10 µM; IC50 [15]: ≥ 10 µM; IC50 [16]: ≥ 10 µM
Cc1c(O)ccc2c1OC[C@H](c1ccc(O)cc1)[C@@H]2c1ccc(O)cc1 [l-5, l-cis-3-(4-hydroxyphenyl)-4-(4-hydroxyphenyl)-8-methylchroman-7-ol]	≥ 10	≥ 10	≥ 10	≥ 10	≥ 10	≥ 10	≥ 10	≥ 10	≥ 10	≥ 10	≥ 10	≥ 10	≥ 10	≥ 10	≥ 10	≥ 10	≥ 10	≥ 10	–
Cc1cc([C@H]2c3ccc(O)c(C)c3OC[C@H]2c2ccc(O)cc2)ccc1O (relative stereo) [d-6, d-cis-3-(4-hydroxyphenyl)-4-(4-hydroxy-3-methylphenyl)-8-methylchroman-7-ol]	–	–	–	–	≤ 0.15	–	–	–	0.15 to 0.5	–	–	–	–	–	–	–	–	–	IC50 [1]: ≤ 0.15 µM; IC50 [2]: 0.15 to 0.5 µM; IC50 [3]: 0.15 to 0.5 µM; IC50 [4]: 0.15 to 0.5 µM; IC50 [6]: 0.15 to 0.5 µM; IC50 [7]: 1.6 to 10 µM; IC50 [8]: 0.15 to 0.5 µM; IC50 [10]: 0.15 to 0.5 µM; IC50 [11]: ≤ 0.15 µM; IC50 [12]: 0.15 to 0.5 µM; IC50 [13]: 0.15 to 0.5 µM; IC50 [14]: ≤ 0.15 µM; IC50 [15]: 0.15 to 0.5 µM; IC50 [16]: ≤ 0.15 µM
